In ChEMBL document CHEMBL1201861, “Genomics of Drug Sensitity in Cancer screening data, Wellcome Trust Sanger Institute”:

Assays:
Assay in all cases: cells
Conditions in all cases: Homo sapiens
EW-16 = format: functional, cell-based;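 also: growth inhibition of human EW-16 cells, read out as cell viability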
Description: SANGER: Inhibition of human EW-16 cell growth in a cell viability assay.

EW-3 = format: functional, cell-based;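 also: cell viability assay read-out, IC50 reflects inhibition of growth of the EW-3 cells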
Description: SANGER: Inhibition of human EW-3 cell growth in a cell viability assay.

GI-1 = format: functional, cell-based;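 also: growth inhibition of human GI-1 cells, measured with a cell viability readout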
Description: SANGER: Inhibition of human GI-1 cell growth in a cell viability assay.

697 = format: functional, cell-based
Description: SANGER: Inhibition of human 697 cell growth in a cell viability assay.

HDLM-2 = format: functional, cell-based;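 also: cell viability assay measuring suppression of HDLM-2 proliferation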
Description: SANGER: Inhibition of human HDLM-2 cell growth in a cell viability assay.

NCI-H209 = format: functional, cell-based;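 also: growth inhibition of human NCI-H209 cells, measured by a cell viability assay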
Description: SANGER: Inhibition of human NCI-H209 cell growth in a cell viability assay.

GR-ST = format: functional, cell-based
Description: SANGER: Inhibition of human GR-ST cell growth in a cell viability assay.

KGN = format: functional, cell-based;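 also: growth inhibition of KGN cells, read out with a cell viability assay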
Description: SANGER: Inhibition of human KGN cell growth in a cell viability assay.

MOLT-4 = format: functional, cell-based;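 also: growth inhibition of MOLT-4 cells, determined with a cell viability readout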
Description: SANGER: Inhibition of human MOLT-4 cell growth in a cell viability assay.

HEL = format: functional, cell-based;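 also: growth inhibition of HEL cells, read out with a cell viability assay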
Description: SANGER: Inhibition of human HEL cell growth in a cell viability assay.

SK-MEL-1 = format: functional, cell-based;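 also: growth inhibition of human SK-MEL-1 cells, read out by a cell viability assay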
Description: SANGER: Inhibition of human SK-MEL-1 cell growth in a cell viability assay.

SK-PN-DW = format: functional, cell-based;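 also: growth inhibition measured with a viability assay on these cells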
Description: SANGER: Inhibition of human SK-PN-DW cell growth in a cell viability assay.

SBC-1 = format: functional, cell-based;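 also: cell viability assay measuring growth inhibition of the SBC-1 cell line, IC50 being the concentration that halves growth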
Description: SANGER: Inhibition of human SBC-1 cell growth in a cell viability assay.

RPMI-8226 = format: functional, cell-based
Description: SANGER: Inhibition of human RPMI-8226 cell growth in a cell viability assay.

KP-N-YS = format: functional, cell-based;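 also: cell viability assay measuring inhibition of cell line growth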
Description: SANGER: Inhibition of human KP-N-YS cell growth in a cell viability assay.

LOX IMVI = format: functional, cell-based
Description: SANGER: Inhibition of human LOXIMVI cell growth in a cell viability assay.

DB = format: functional, cell-based
Description: SANGER: Inhibition of human DB cell growth in a cell viability assay.

HCE-4 = format: functional, cell-based;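 also: cell viability assay measuring inhibition of growth in the human HCE-4 cell line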
Description: SANGER: Inhibition of human HCE-4 cell growth in a cell viability assay.

A4-Fuk = format: functional, cell-based;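 also: growth inhibition of A4-Fuk cells, read out by a cell viability assay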
Description: SANGER: Inhibition of human A4-Fuk cell growth in a cell viability assay.

MOLT-16 = format: functional, cell-based;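 also: growth inhibition of human MOLT-16 cells, read out with a cell viability assay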
Description: SANGER: Inhibition of human MOLT-16 cell growth in a cell viability assay.

NMC-G1 = format: functional, cell-based;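 also: growth inhibition of the NMC-G1 cell line, measured with a cell viability read-out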
Description: SANGER: Inhibition of human NMC-G1 cell growth in a cell viability assay.

MFH-ino = format: functional, cell-based;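 also: growth inhibition of human MFH-ino cells, read out by a cell viability assay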
Description: SANGER: Inhibition of human MFH-ino cell growth in a cell viability assay.

ES8 = format: functional, cell-based;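 also: growth inhibition of human ES8 cells, read out with a cell viability assay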
Description: SANGER: Inhibition of human ES8 cell growth in a cell viability assay.

EW-13 = format: functional, cell-based;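 also: growth inhibition of EW-13 cells, read out with a cell viability assay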
Description: SANGER: Inhibition of human EW-13 cell growth in a cell viability assay.

ES6 = format: functional, cell-based;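 also: growth inhibition of human ES6 cells, read out with a cell viability assay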
Description: SANGER: Inhibition of human ES6 cell growth in a cell viability assay.

NCI-H1648 = format: functional, cell-based;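 also: cell viability assay measuring inhibition of NCI-H1648 cell growth, from the Sanger screening data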
Description: SANGER: Inhibition of human NCI-H1648 cell growth in a cell viability assay.

TE-1 = format: functional, cell-based
Description: SANGER: Inhibition of human TE-1 cell growth in a cell viability assay.

ES1 = format: functional, cell-based;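 also: growth inhibition of ES1 cells, read out with a cell viability assay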
Description: SANGER: Inhibition of human ES1 cell growth in a cell viability assay.

U-266 = format: functional, cell-based
Description: SANGER: Inhibition of human U-266 cell growth in a cell viability assay.

CGTH-W-1 = format: functional, cell-based;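 also: growth inhibition of human CGTH-W-1 cells measured by cell viability assay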
Description: SANGER: Inhibition of human CGTH-W-1 cell growth in a cell viability assay.

J-RT3-T3-5 = format: functional, cell-based;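 also: cell viability assay measuring growth inhibition of human J-RT3-T3-5 cells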
Description: SANGER: Inhibition of human J-RT3-T3-5 cell growth in a cell viability assay.

GB-1 = format: functional, cell-based;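 also: growth of GB-1 cells judged by a viability assay, IC50 marks the concentration inhibiting growth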
Description: SANGER: Inhibition of human GB-1 cell growth in a cell viability assay.

BB49-HNC = format: functional, cell-based;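 also: cell viability assay read-out, reported as inhibition of BB49-HNC cell growth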
Description: SANGER: Inhibition of human BB49-HNC cell growth in a cell viability assay.

TE-9 = format: functional, cell-based;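 also: cell growth inhibition, measured with a cell viability readout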
Description: SANGER: Inhibition of human TE-9 cell growth in a cell viability assay.

LB831-BLC = format: functional, cell-based;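 also: growth inhibition of LB831-BLC cells, read out with a cell viability assay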
Description: SANGER: Inhibition of human LB831-BLC cell growth in a cell viability assay.

NCI-H1838 = format: functional, cell-based;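 also: growth inhibition of NCI-H1838 cells, determined with a cell viability readout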
Description: SANGER: Inhibition of human NCI-H1838 cell growth in a cell viability assay.

JVM-3 = format: functional, cell-based;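 also: growth inhibition of human JVM-3 cells, read out with a cell viability assay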
Description: SANGER: Inhibition of human JVM-3 cell growth in a cell viability assay.

JAR = format: functional, cell-based;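 also: growth inhibition of human JAR cells determined with a cell viability assay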
Description: SANGER: Inhibition of human JAR cell growth in a cell viability assay.

TE-6 = format: functional, cell-based;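 also: growth inhibition of TE-6 cells, read out with a cell viability assay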
Description: SANGER: Inhibition of human TE-6 cell growth in a cell viability assay.

COR-L88 = format: functional, cell-based;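 also: growth inhibition of COR-L88 cells, read out with a cell viability assay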
Description: SANGER: Inhibition of human COR-L88 cell growth in a cell viability assay.

KG-1 = format: functional, cell-based;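 also: growth inhibition of KG-1 cells, read out by a cell viability assay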
Description: SANGER: Inhibition of human KG-1 cell growth in a cell viability assay.

NB69 = format: functional, cell-based;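 also: growth inhibition of NB69 cells, determined by a cell viability assay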
Description: SANGER: Inhibition of human NB69 cell growth in a cell viability assay.

SCC-15 = format: functional, cell-based;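 also: growth inhibition of SCC-15 cells, read out with a cell viability assay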
Description: SANGER: Inhibition of human SCC-15 cell growth in a cell viability assay.

MZ7-mel = format: functional, cell-based;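 also: growth inhibition of human MZ7-mel cells, measured by a cell viability assay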
Description: SANGER: Inhibition of human MZ7-mel cell growth in a cell viability assay.

MV4-11 = format: functional, cell-based, MV-4-11;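 also: cell viability readout measuring growth inhibition of human MV-4-11 cells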
Description: SANGER: Inhibition of human MV-4-11 cell growth in a cell viability assay.

CTB-1 = format: functional, cell-based
Description: SANGER: Inhibition of human CTB-1 cell growth in a cell viability assay.

TE-5 = format: functional, cell-based;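 also: inhibition of cell growth, read out by a cell viability assay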
Description: SANGER: Inhibition of human TE-5 cell growth in a cell viability assay.

K5 = format: functional, cell-based
Description: SANGER: Inhibition of human K5 cell growth in a cell viability assay.

LB1047-RCC = format: functional, cell-based;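 also: inhibition of cell growth, determined with a cell viability assay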
Description: SANGER: Inhibition of human LB1047-RCC cell growth in a cell viability assay.

MS-1 = format: functional, cell-based;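 also: growth inhibition of MS-1 cells, read out by cell viability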
Description: SANGER: Inhibition of human MS-1 cell growth in a cell viability assay.

ACN = format: functional, cell-based;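 also: growth inhibition of the human ACN cell line, read out via cell viability testing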
Description: SANGER: Inhibition of human ACN cell growth in a cell viability assay.

TE-11 = format: functional, cell-based;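 also: growth inhibition of human TE-11 cells, read out by a cell viability assay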
Description: SANGER: Inhibition of human TE-11 cell growth in a cell viability assay.

COLO-684 = format: functional, cell-based
Description: SANGER: Inhibition of human COLO-684 cell growth in a cell viability assay.

A388 = format: functional, cell-based;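 also: growth inhibition of human A388 cells, read out with a cell viability assay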
Description: SANGER: Inhibition of human A388 cell growth in a cell viability assay.

C2BBe1 = format: functional, cell-based;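 also: growth inhibition of C2BBe1 cells, read out through a viability assay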
Description: SANGER: Inhibition of human C2BBe1 cell growth in a cell viability assay.

MZ1-PC = format: functional, cell-based;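 also: cell viability assay measuring growth inhibition of human MZ1-PC cells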
Description: SANGER: Inhibition of human MZ1-PC cell growth in a cell viability assay.

KM12 = format: functional, cell-based;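 also: KM12 cell growth inhibition, read out with a cell viability assay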
Description: SANGER: Inhibition of human KM12 cell growth in a cell viability assay.

NCI-H1581 = format: functional, cell-based;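 also: cell growth inhibition read out by a viability assay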
Description: SANGER: Inhibition of human NCI-H1581 cell growth in a cell viability assay.

LB771-HNC = format: functional, cell-based;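 also: growth inhibition of LB771-HNC human cells, read out with a cell viability assay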
Description: SANGER: Inhibition of human LB771-HNC cell growth in a cell viability assay.

D283 Med = format: functional, cell-based
Description: SANGER: Inhibition of human D-283MED cell growth in a cell viability assay.

LS-411N = format: functional, cell-based
SW 954 = format: functional, cell-based;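 also: growth inhibition of SW954 human cancer cells, read out as cell viability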
Description: SANGER: Inhibition of human SW954 cell growth in a cell viability assay.

ES3 = format: functional, cell-based
Description: SANGER: Inhibition of human ES3 cell growth in a cell viability assay.

NCI-H526 = format: functional, cell-based
Description: SANGER: Inhibition of human NCI-H526 cell growth in a cell viability assay.

NCI-H1355 = format: functional, cell-based
Description: SANGER: Inhibition of human NCI-H1355 cell growth in a cell viability assay.

RKO = format: functional, cell-based
Description: SANGER: Inhibition of human RKO cell growth in a cell viability assay.

Q: With `C/C(O)=C(\C#N)C(=O)Nc1cc(Br)ccc1Br` as the molecule, how does the IC50 (EW-16) read?
A: > 16000 nM

Q: What about the IC50 (EW-3) of the same molecule?
A: > 16000 nM

Q: What about the IC50 (GI-1) of the same molecule?
A: > 16000 nM

Q: What about the IC50 697 of the same molecule?
A: > 16000 nM

Q: What about the IC50 (HDLM-2) of the same molecule?
A: > 16000 nM

Q: What about the IC50 (NCI-H209) of the same molecule?
A: > 16000 nM

Q: And the IC50 (GR-ST)?
A: > 16000 nM

Q: What about the IC50 (KGN) of the same molecule?
A: > 16000 nM

Q: What about the IC50 (MOLT-4) of the same molecule?
A: > 16000 nM

Q: What about the IC50 (HEL) of the same molecule?
A: > 16000 nM

Q: What about the IC50 (SK-MEL-1) of the same molecule?
A: > 16000 nM

Q: What about the IC50 (SK-PN-DW) of the same molecule?
A: > 16000 nM

Q: And the IC50 (SBC-1)?
A: > 16000 nM

Q: And the IC50 (RPMI-8226)?
A: > 16000 nM

Q: What about the IC50 (KP-N-YS) of the same molecule?
A: > 16000 nM

Q: What about the IC50 (LOX IMVI) of the same molecule?
A: > 16000 nM

Q: And the IC50 (DB)?
A: > 16000 nM

Q: And the IC50 (HCE-4)?
A: > 16000 nM

Q: What about the IC50 (A4-Fuk) of the same molecule?
A: > 16000 nM

Q: And the IC50 (MOLT-16)?
A: > 16000 nM

Q: What about the IC50 (NMC-G1) of the same molecule?
A: > 16000 nM

Q: What about the IC50 (MFH-ino) of the same molecule?
A: > 16000 nM

Q: And the IC50 (ES8)?
A: > 16000 nM

Q: What about the IC50 (EW-13) of the same molecule?
A: > 16000 nM

Q: What about the IC50 (ES6) of the same molecule?
A: > 16000 nM

Q: What about the IC50 (NCI-H1648) of the same molecule?
A: > 16000 nM

Q: And the IC50 (TE-1)?
A: > 16000 nM

Q: And the IC50 (ES1)?
A: > 16000 nM

Q: What about the IC50 (U-266) of the same molecule?
A: > 16000 nM

Q: And the IC50 (CGTH-W-1)?
A: > 16000 nM

Q: What about the IC50 (J-RT3-T3-5) of the same molecule?
A: > 16000 nM

Q: And the IC50 (GB-1)?
A: > 16000 nM

Q: What about the IC50 (BB49-HNC) of the same molecule?
A: > 16000 nM

Q: And the IC50 (TE-9)?
A: > 16000 nM

Q: What about the IC50 (LB831-BLC) of the same molecule?
A: > 16000 nM

Q: What about the IC50 (NCI-H1838) of the same molecule?
A: > 16000 nM

Q: What about the IC50 (JVM-3) of the same molecule?
A: > 16000 nM

Q: What about the IC50 (JAR) of the same molecule?
A: > 16000 nM

Q: And the IC50 (TE-6)?
A: > 16000 nM

Q: And the IC50 (COR-L88)?
A: > 16000 nM

Q: And the IC50 (KG-1)?
A: > 16000 nM

Q: What about the IC50 (NB69) of the same molecule?
A: > 16000 nM

Q: What about the IC50 (SCC-15) of the same molecule?
A: > 16000 nM

Q: What about the IC50 (MZ7-mel) of the same molecule?
A: > 16000 nM

Q: And the IC50 (MV4-11)?
A: > 16000 nM

Q: What about the IC50 (CTB-1) of the same molecule?
A: > 16000 nM

Q: What about the IC50 (TE-5) of the same molecule?
A: > 16000 nM

Q: What about the IC50 (K5) of the same molecule?
A: > 16000 nM

Q: And the IC50 (LB1047-RCC)?
A: > 16000 nM

Q: What about the IC50 (MS-1) of the same molecule?
A: > 16000 nM

Q: And the IC50 (ACN)?
A: > 16000 nM

Q: And the IC50 (TE-11)?
A: > 16000 nM

Q: What about the IC50 (COLO-684) of the same molecule?
A: > 16000 nM

Q: And the IC50 (A388)?
A: > 16000 nM

Q: And the IC50 (C2BBe1)?
A: > 16000 nM

Q: What about the IC50 (MZ1-PC) of the same molecule?
A: > 16000 nM

Q: What about the IC50 (KM12) of the same molecule?
A: > 16000 nM

Q: And the IC50 (NCI-H1581)?
A: > 16000 nM

Q: What about the IC50 (LB771-HNC) of the same molecule?
A: > 16000 nM

Q: What about the IC50 (D283 Med) of the same molecule?
A: > 16000 nM

Q: And the IC50 (LS-411N)?
A: > 16000 nM

Q: What about the IC50 (SW 954) of the same molecule?
A: > 16000 nM

Q: What about the IC50 (ES3) of the same molecule?
A: > 16000 nM

Q: And the IC50 (NCI-H526)?
A: > 16000 nM

Q: And the IC50 (NCI-H1355)?
A: > 16000 nM

Q: What about the IC50 (RKO) of the same molecule?
A: > 16000 nM

Q: Which results are given for `C/C=C(/C)C(=O)O[C@H]1C(C)=C2[C@H]([C@@H]1OC(=O)CCCCCCC)[C@@](C)(OC(C)=O)C[C@H](OC(=O)CCC)[C@@]1(O)[C@H]2OC(=O)[C@@]1(C)O` [THAPSIGARGIN]?
A: IC50 (EW-16): 0.598 nM; IC50 (EW-3): 118 nM; IC50 (GI-1): 0.549 nM; IC50 697: < 2 nM; IC50 (HDLM-2): 215 nM; IC50 (NCI-H209): 18.1 nM; IC50 (GR-ST): 10.5 nM; IC50 (KGN): < 2 nM; IC50 (MOLT-4): 39.5 nM; IC50 (HEL): 46.3 nM; IC50 (SK-MEL-1): > 512 nM; IC50 (SK-PN-DW): < 2 nM; IC50 (SBC-1): 48 nM; IC50 (RPMI-8226): 14.9 nM; IC50 (KP-N-YS): 8.06 nM; IC50 (LOX IMVI): 2.98 nM; IC50 (DB): 2.55 nM; IC50 (HCE-4): 4.25 nM; IC50 (A4-Fuk): < 2 nM; IC50 (MOLT-16): 4.52 nM; IC50 (NMC-G1): 21.5 nM; IC50 (MFH-ino): 1.32 nM; IC50 (ES8): 18.1 nM; IC50 (EW-13): 2.31 nM; IC50 (ES6): < 2 nM; IC50 (NCI-H1648): 1.44 nM; IC50 (TE-1): 22 nM; IC50 (ES1): < 2 nM; IC50 (U-266): 2.91 nM; IC50 (CGTH-W-1): < 2 nM; IC50 (J-RT3-T3-5): 141 nM; IC50 (GB-1): 114 nM; IC50 (BB49-HNC): > 512 nM; IC50 (TE-9): 13.3 nM; IC50 (LB831-BLC): 3.94 nM; IC50 (NCI-H1838): > 512 nM; IC50 (JVM-3): 33.6 nM; IC50 (JAR): > 512 nM; IC50 (TE-6): 17.8 nM; IC50 (COR-L88): 266 nM; IC50 (KG-1): 67.4 nM; IC50 (NB69): 0.873 nM; IC50 (SCC-15): 1.12 nM; IC50 (MZ7-mel): 107 nM; IC50 (MV4-11): 11 nM; IC50 (CTB-1): 17 nM; IC50 (TE-5): > 512 nM; IC50 (K5): > 512 nM; IC50 (LB1047-RCC): 7.05 nM; IC50 (MS-1): 29.5 nM; IC50 (ACN): 4.69 nM; IC50 (TE-11): 9.14 nM; IC50 (COLO-684): 345 nM; IC50 (A388): 1.39 nM; IC50 (C2BBe1): 29.3 nM; IC50 (MZ1-PC): < 2 nM; IC50 (KM12): 13.4 nM; IC50 (NCI-H1581): 0.55 nM; IC50 (LB771-HNC): 64.1 nM; IC50 (D283 Med): < 2 nM; IC50 (LS-411N): 13.6 nM; IC50 (SW 954): 15.6 nM; IC50 (ES3): 4.1 nM; IC50 (NCI-H526): 34 nM; IC50 (NCI-H1355): 5.48 nM; IC50 (RKO): 1.61 nM
